Here are results for 16 compounds from ChEMBL document CHEMBL1129885, “Rational design of selective thrombin inhibitors” (Bioorg Med Chem Lett, 1997).

Molecules are shown by their SMILES.

Test [1] is described as follows: Ratio of inhibitory effect of bovine trypsin to that of bovine thrombin.
Test [2] concerns the target Prothrombin (Bos taurus, UniProt P00735). The test is described as follows: Inhibitory effect against bovine thrombin.
For test [3], the target named is T1, Serine protease 1 (Bos taurus, UniProt P00760).
T1 sequence (P00760 whole entry): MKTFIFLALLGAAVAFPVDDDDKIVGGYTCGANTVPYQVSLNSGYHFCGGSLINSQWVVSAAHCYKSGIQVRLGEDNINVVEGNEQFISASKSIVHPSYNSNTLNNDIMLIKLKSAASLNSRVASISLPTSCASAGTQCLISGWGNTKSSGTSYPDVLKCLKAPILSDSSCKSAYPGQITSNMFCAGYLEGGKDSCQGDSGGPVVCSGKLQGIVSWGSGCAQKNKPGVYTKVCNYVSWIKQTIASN
Description: Inhibitory effect of compound was measured in bovine trypsin.

`N/C(=N\O)c1ccc(C[C@H](NS(=O)(=O)c2ccc3ccccc3c2)C(=O)N2CCCCCC2)cc1`: the Ratio in test [1] was 277. In general, Ki refers to the equilibrium dissociation constant of an inhibitor or competing ligand from its target. Read a high Ki as lower affinity. For the compound `NN=C(N)c1ccc(C[C@@H](NC(=O)CNS(=O)(=O)c2ccc3ccccc3c2)C(=O)N2CCCCC2)cc1`, the figures for the Ki in test [2] and in test [3] were 5.37 µM and 192 µM, respectively. Regarding `CNC(=N)c1ccc(C[C@H](NS(=O)(=O)c2ccc3ccccc3c2)C(=O)N2CCCCCC2)cc1`, the Ratio in test [1] amounted to 12000. The same measure, in the same setting: in the case of `N=C(NN)c1ccc(C[C@@H](NC(=O)CNS(=O)(=O)c2ccc3ccccc3c2)C(=O)N2CCCCC2)cc1` it was 36.

For the compound `CN=C(N)c1ccc(C[C@@H](NC(=O)CNS(=O)(=O)c2ccc3ccccc3c2)C(=O)N2CCCCC2)cc1`, the Ki in test [2] came to 4.32 µM; in test [3], 81.5 µM.

For the compound `N=C(N)c1ccc(C[C@@H](NC(=O)CNS(=O)(=O)c2ccc3ccccc3c2)C(=O)N2CCCCC2)cc1`, affinity in test [2] was put at a Ki of 0.0065 µM. The same measure, in the same setting: in the case of `CCNC(=N)c1ccc(C[C@H](NS(=O)(=O)c2ccc3ccccc3c2)C(=O)N2CCCCCC2)cc1` it was 13.6 µM. For the compound `CN=C(N)c1ccc(C[C@H](NS(=O)(=O)c2ccc3ccccc3c2)C(=O)N2CCCCCC2)cc1`, the Ki is 0.0455 µM in test [2] and 545 µM in test [3]. On to `N=C(NN)c1ccc(C[C@H](NS(=O)(=O)c2ccc3ccccc3c2)C(=O)N2CCCCCC2)cc1`, for which the results for the Ki in test [2] and in test [3] were 0.00147 µM and 3.73 µM, respectively. Further, the Ratio in test [1] is 2540. In the case of `CNC(=N)c1ccc(C[C@@H](NC(=O)CNS(=O)(=O)c2ccc3ccccc3c2)C(=O)N2CCCCC2)cc1`, the Ratio in test [1] is 19. Regarding `N=C(N)c1ccc(C[C@@H](NC(=O)CNS(=O)(=O)c2ccc3ccccc3c2)C(=O)N2CCCCCC2)cc1`, the Ki in test [2] came out at 0.02 µM. Consider `N=C(N)c1ccc(C[C@H](NS(=O)(=O)c2ccc3ccccc3c2)C(=O)N2CCCCCC2)cc1`, for which the Ki in test [2] came to 0.0524 µM; in test [3], 8.65 µM. Also, the Ratio in test [1] amounted to 166.

In test [2], `NN=C(N)c1ccc(C[C@@H](NC(=O)CNS(=O)(=O)c2ccc3ccccc3c2)C(=O)N2CCCCCC2)cc1` had a Ki of 2.7 µM. Still for that read-out and setting: in the case of `N=C(N)c1ccc(C[C@H](NS(=O)(=O)c2ccc3cc4ccccc4cc3c2)C(=O)N2CCCCCC2)cc1` it was 0.05 µM; in that of `N=C(NN)c1ccc(C[C@H](NS(=O)(=O)c2ccc3cc4ccccc4cc3c2)C(=O)N2CCCCCC2)cc1`, 0.001 µM.

`N=C(NO)c1ccc(C[C@H](NS(=O)(=O)c2ccc3ccccc3c2)C(=O)N2CCCCCC2)cc1`: the Ki in test [2] came out at 1.14 µM; in test [3] it was 316 µM.
